pIC50: −log10 of the molar value. Where two headings read alike, the source gives them in different places.
How the values were obtained:
[1] = biological target: T1, Topoisomerase I (Homo sapiens, UniProt P11387); assay: Topoisomerase I assay (TopoGEN Topo I Drug Screening Kit); assay type: biochemical
T1 construct: purchased Topogen, Inc., Port Orange, Fla
T1 sequence (P11387 1-765): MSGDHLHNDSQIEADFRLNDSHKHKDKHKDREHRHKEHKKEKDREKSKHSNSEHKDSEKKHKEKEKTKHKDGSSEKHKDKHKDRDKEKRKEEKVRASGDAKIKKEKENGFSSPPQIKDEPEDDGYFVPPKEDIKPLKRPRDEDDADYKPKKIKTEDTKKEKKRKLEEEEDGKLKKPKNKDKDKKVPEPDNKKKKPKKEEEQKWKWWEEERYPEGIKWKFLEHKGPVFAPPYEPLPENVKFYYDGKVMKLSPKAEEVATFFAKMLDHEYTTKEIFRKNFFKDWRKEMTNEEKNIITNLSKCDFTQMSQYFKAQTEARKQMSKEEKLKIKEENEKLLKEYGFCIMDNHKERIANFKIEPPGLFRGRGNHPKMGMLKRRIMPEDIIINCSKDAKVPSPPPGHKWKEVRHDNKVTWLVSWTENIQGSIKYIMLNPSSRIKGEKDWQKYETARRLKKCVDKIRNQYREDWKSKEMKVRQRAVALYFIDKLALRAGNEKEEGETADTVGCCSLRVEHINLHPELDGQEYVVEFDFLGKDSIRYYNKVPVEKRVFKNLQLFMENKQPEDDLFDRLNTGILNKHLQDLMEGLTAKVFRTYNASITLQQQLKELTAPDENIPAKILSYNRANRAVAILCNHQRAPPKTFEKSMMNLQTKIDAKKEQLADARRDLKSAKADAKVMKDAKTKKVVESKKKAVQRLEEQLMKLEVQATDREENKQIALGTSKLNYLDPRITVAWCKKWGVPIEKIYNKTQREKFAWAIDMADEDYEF
Description: Topoisomerase I introduces transient nicks in DNA at specific sites. Detection of these transient DNA nicks requires trapping the enzyme on DNA in a nicked intermediate complex using protein denaturants. The resulting covalent DNA/topo I complexes contain nicked open circular DNA which can be detected by agarose gel electrophoresis (with ethidium bromide). Trapping nicked intermediates is relatively inefficient, however, inhibitors, such as the natural product camptothecin, stabilize the intermediate and lead to an increase in the nicked DNA product. This forms the basis for a mechanistic drug screen designed to allow detection of agents that affect topoisomerase I by stabilizing the cleaved intermediate complex.
The TopoGEN® Topo I Drug Screening Kit (Topogen, Inc., Port Orange, Fla.) is designed to allow the investigator to quickly identify novel inhibitors of topoisomerase I. The kit allows the detection of novel compounds that either stabilize the nicked intermediate or otherwise inhibit catalytic activity of topoisomerase I.
The above reaction mixture is incubated at 37° C. for 30 minutes. The reaction is terminated by adding 2 μl of 10% SDS and the mixture is vortexed rapidly (SDS should be added while at 37° C. as cooling the tubes might reseal the nicked DNA). 10× Dye, about 2.5 μl per tube, is added and equal volumes of a mixture of chloroform and isoamyl alcohol (24:1) is added and centrifuged at 13000 rpm for 10 minutes. Samples are loaded on a 1% agarose gel and electrophoresed for 1 hour at 80 volts. The gel was viewed on UV transilluminator and the densitometric estimation of the bands was calculated.
The density of the DNA bands of both super coiled and relaxed forms of DNA was measured using the densitometer. The band intensity of treated (with single concentration of the test drug) and without the drug (i.e., the Control) were recorded. The percentage of relaxed form DNA compared to the supercoiled DNA was calculated for all the lanes including treated and control.
% inhibition of Topoisomerase activity was calculated as: =(100−(100×(1/% inhibition in Control)×% inhibition in treated))

[2] = in vivo; design: species or system Swiss Albino mice; conditions: Swiss Albino, mouse, po, 5 mg/kg
Procedure: 5(S)-CPT (2.5 mg/kg) and 5(RS)-CPT (5 mg/kg, including 2.5 mg/kg of 5(S)-CPT in the mixture) were been administered to Swiss Albino mice to evaluate oral pharmacokinetics.
(§1) Swiss Albino mice, 3-6 weeks of age and weighing between 28-34 g were used in the study. Twelve mice were used per study. The oral pharmacokinetics test was carried out in overnight fasted condition and intravenous pharmacokinetics was carried out in fed condition. The test drugs were administered as a solution by oral gavage or lateral tail vein injection. Sparse blood samples of about 250 microliters were collected from retro-orbital plexus at designated time points into microcentrifuge tubes containing 25 microliters of EDTA. Plasma was separated by centrifuging blood at 12,800 rpm for 2 min and refrigerated until analysis.
(§2) Samples were tested for the presence of the test drug as follows. An aliquot of 100 μl plasma (stored at 8° C.) was precipitated with 400 μl of cold methanol for the estimation of total (lactone+carboxylate). […] Concentrations of the test drug were calculated from the linearity plotted by spiking known concentrations of the test drug in blank rat plasma. The pharmacokinetics of the test drug was calculated using non-compartmental analysis.

[3] = test system: NCI-H460 (human small cell lung carcinoma) xenografts; assay: NCI-H460 xenograft study in nude mice; assay type: in vivo; conditions: oral, (d×5)2 schedule
Procedure: Percentage tumor growth inhibition was calculated using the formula: Percentage Tumor growth inhibition=100−% T/C.
The other parameter observed was mortality.

[4] = in vivo; design: species or system male Wistar rats; conditions: male, Wistar, rat, po, 5 mg/kg
Procedure: 5(S)-CPT (2.5 mg/kg) and 5(RS)-CPT (5 mg/kg, including 2.5 mg/kg of 5(S)-CPT in the mixture) were been administered to male Wistar Rats to evaluate oral pharmacokinetics.
as §1, with “Male Wistar rats, 6-8” for “Swiss Albino mice, 3-6”, “205 and 218” for “28-34”, “divided into groups of four rats.” for “used in the study. Twelve mice were used per study.”
as §2

[5] = assay type: physicochemical; conditions: accelerated stability 40° C.±2° C./75% RH±5% RH for 6 months
Procedure: The water content of crystalline 5(S)-CPT was measured by Mettler® DL 31 KF apparatus by using Karl Fischer reagent. A weighed quantity of crystalline 5(S)-CPT was transferred into a titration vessel of a Karl Fischer apparatus containing about 40 ml of previously neutralized methanol. The sample was dissolved with stirring, and was titrated with Karl Fisher Reagent to the end point under vigorous stirring. Water content was calculated as: […]
The product is stable in 6 months accelerated conditions.
In one embodiment, 5(S)-CPT is isolated in crystalline form, which exists substantially free from water (i.e., essentially anhydrous). The term “substantially free from water” means the presence of less than about 1.0% water w/w and even specifically less than about 0.5% water w/w as measured by Karl Fisher analysis or TGA. […] The product is stable for 6 months under accelerated stability testing conditions of 40° C.±2° C./75% RH±5% RH and stable for 24 months under long term stability testing conditions at 30° C.±2° C./65%±5% RH.

[6] = test system: Saos-2 cells over expressing non-functional BCRP mut#10; assay type: cell-based, human
Procedure: (§3) The anticancer effect of 5(S)-CPT & 5(R)-CPT were evaluated versus the diastereoisomeric mixture 5(RS)-CPT on Saos-2 cells over expressing functional BCRP#4 and non-functional BCRP mut#10. The human osteosarcoma cell line, Saos-2, was obtained from ATCC (American Type Culture Collection, Cat#HTB-85, Manassas, Va.) and were maintained in DMEM containing 10% fetal bovine serum, 1% penicillin/streptomycin, and 2 mM glutamine. Saos-2 cells were transfected with either BCRP#4 to over express functional BCRP or BCRP#10 to over express non-functional BCRP transporter. The cells were plated in 96-well plates at a density of 1000 cells per each well in a 0.1 ml of medium and allowed to attach overnight. The next morning the medium was gently aspirated and serial dilutions of the compounds to be tested were added. The cells were incubated at 37° C. in a 5% CO2 incubator. After 6 days of exposure to the test drugs, 10 μl of Alamar blue was added aseptically to each well and the plates were returned to the incubator for 6 hr. The amount of the fluorescent dye produced was measured on a Cytofluor 2300(Millipore, Bedford, Mass.) using an excitation wavelength of 530 nm and emission wavelength of 590 nm. The relative fluorescence units obtained were used to calculate the percentage growth at each concentration in relation to the untreated control values. […]

[7] = test system: Saos-2 cells over expressing functional BCRP#4; assay type: cell-based, human
Procedure: as §3

[8] = test system: Human bone marrow mononuclear cells; assay: Human bone marrow assay (CFU-GM colony inhibition); assay type: cell-based
Procedure: Methocult™ GF (Cat No: H4534, Poietics, Biowhittakar, USA) medium comprising Methycellulose in Iscove's MDM, Fetal bovine serum, Bovine serum albumin, 2-Mercaptoethanol, L-Glutamine, rhStem cell factor, rhGM-CSF and rhIL-3 was used for the assay. Human bone marrow mononuclear cells (Cat No. 2M-125C, Poietics, Biowhittakar, USA) were mixed with Methocult™ GF and the cell density was adjusted to 3×10^5 cells/ml. From this preparation, 500 μL aliquots were made and 2.5 μL of 20× drug solution or vehicle was added to each aliquot and mixed thoroughly. 100 μL of clonogenic medium was plated into each well and the plates were allowed to gel at 4° C. for 15 minutes. Plates were incubated at 37° C. in a fully humidified atmosphere of 5% CO2 in an incubator for 14 days. CFU-GM colonies were counted under an inverted microscope as aggregates of 50 cells or more. The percentage colony inhibition was calculated using the following formula: 100−[(number of colonies in drug treated wells/Number of colonies in control wells)×100].

Compound | pIC50 [1] | AUC [2] [µM·h] | % Tumor Growth Inhibition ([3]; 2 mg/kg) [%] | Mortality ([3]; 2 mg/kg) | Mortality ([3]; 4 mg/kg) | AUC [4] [µM·h] | fold more active than 5(R)-CPT in inhibiting topoisomerase I ([1]; versus 5(R)-CPT) | times more active than 5(RS)-CPT in inhibiting topoisomerase I ([1]; versus 5(RS)-CPT) | change in water content (Karl Fisher analysis) [5] | hygroscopicity [5] | change in water content (Karl Fisher analysis) ([5]; listed as crystalline 5(S)-CPT) | fold more cytotoxic than 5(R)-CPT [6] [fold] | fold more cytotoxic than 5(R)-CPT [7] [fold] | GI90 for human bone marrow cells in vitro ([8]; human, 14 days) [µM] | Safety Margin (GI90/GI50) ([8]; ratio of GI90 for human cell toxicity to GI50 for anticancer activity) | Safety Margin (GI90/GI50) ([8]; human, 14 days)
CC[C@@]1(O)C(=O)OCc2c1cc1n(c2=O)C(OCCO)c2cc3ccccc3nc2-1 (mixture of isomers) [5(RS)-CPT, 5(RS)-(2′-hydroxyethoxy)-20(S)-camptothecin, reference compound] | 4.90 | 5.2 | 60 | 0/5 | 0/5 | 5.08 |  |  |  |  |  |  |  |  |  | 
CC[C@@]1(O)C(=O)OCc2c1cc1n(c2=O)[C@@H](OCCO)c2cc3ccccc3nc2-1 [5(S)-CPT, 5(S)-(2′-hydroxyethoxy)-20(S)-camptothecin] | 5.97 | 5.18 |  | 0/5 | 0/5 | 5.76 | about 21 fold | about 12 times | no appreciable change | non-hygroscopic | No change | ~6 | > 2.5 | 0.69 | 0.14 | 
CC[C@@]1(O)C(=O)OCc2c1cc1n(c2=O)[C@H](OCCO)c2cc3ccccc3nc2-1 [5(R)-CPT, 5(R)-(2′-hydroxyethoxy)-20(S)-camptothecin, reference compound] | 4.66 |  |  |  |  |  |  |  |  |  |  |  |  | 0.89 |  | 0.06
